From patent publication US12637425B2, “Compounds and formulations for treating ophthalmic diseases” (Visus Therapeutics, Inc., priority 2020, dated 2026)

Biological target: T1, Recombinant cryAB(R120G) protein (Homo sapiens, UniProt P02511, R120G)
T1 sequence (P02511 1-175 R120G): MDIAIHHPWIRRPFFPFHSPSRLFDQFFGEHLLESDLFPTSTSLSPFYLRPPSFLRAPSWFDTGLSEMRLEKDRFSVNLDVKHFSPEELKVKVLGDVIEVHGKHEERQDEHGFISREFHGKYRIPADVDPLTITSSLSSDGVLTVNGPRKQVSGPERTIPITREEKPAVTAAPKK
Assay: Kinetic turbidity aggregation assay of recombinant cryAB(R120G)
Assay type: biochemical
Settings: for inhibition at 25 µM: read-out: % Inhibition of Protein Aggregation, 25 μM cmpd; for inhibition at 100 µM: read-out: % Inhibition of Protein Aggregation, 100 μM cmpd; for IC50: inhibition of cryAB(R120G) protein aggregation
Protocol: Example A-1: Kinetic Turbidity Aggregation Assay of Recombinant cryAB(R120)
Recombinant cryAB(R120G) protein was diluted to 100 μM in assay buffer (50 mM Tris, 100 mM NaCl, 5 mM DTT, 0.01% Triton X-100, 0.05% PEG-8000). Compounds were dissolved in DMSO at 10 mM then typically diluted to 2.5 mM in DMSO and serially diluted 2-fold as necessary. To a 384-well black microplate in quadruplicate was added 81 μL assay buffer, followed by 15 μL protein solution, and 4 μL compound to give a final concentration of 15 μM cryAB(R120G) protein in 4% DMSO. […] N.D. is not determined.

[1] = 25 μM compound, 15 μM cryAB(R120G), 42° C., absorbance at 550 nm
[2] = 100 μM compound, 15 μM cryAB(R120G), 42° C., absorbance at 550 nm

inhibition at 25 µM [1] [%] | inhibition at 100 µM [2] [%] | Structure (SMILES) | other results
49 | 99.3 | CCn1nc([C@H](CNS(=O)(=O)c2ccc3cc[nH]c3c2)N2CCCC2)c2ccccc21 [Compound 92, (S)-N-(2-(1-ethyl-1H-indazol-3-yl)-2-(pyrrolidin-1-yl)ethyl)-1H-indole-6-sulfonamide] | –
-45 | 58.8 | COc1ccc2[nH]ccc2c1S(=O)(=O)NCC(c1cn(C)c2ccccc12)N(C)C (stereo not shown) [Compound 97, N-(2-(dimethylamino)-2-(1-methyl-1H-indol-3-yl)ethyl)-5-methoxy-1H-indole-4-sulfonamide] | –
61.7 | 99.9 | Cc1ccc2c(C(CNS(=O)(=O)c3ccc4cc[nH]c4c3)N(C)C)cn(C)c2c1 (stereo not shown) [Compound 100, N-(2-(1,6-dimethyl-1H-indol-3-yl)-2-(dimethylamino)ethyl)-1H-indole-6-sulfonamide] | –
8 | 98.7 | O=S(=O)(NC[C@@H](c1cnc2ccccn12)N1CCCC1)c1ccc2cc[nH]c2c1 [Compound 79, (S)-N-(2-(imidazo[1,2-a]pyridin-3-yl)-2-(pyrrolidin-1-yl)ethyl)-1H-indole-6-sulfonamide] | –
60 | 58.8 | COc1cc2cc[nH]c2cc1S(=O)(=O)NCC(c1cn(C)c2ccccc12)N(C)C (stereo not shown) [Compound 96, N-(2-(dimethylamino)-2-(1-methyl-1H-indol-3-yl)ethyl)-5-methoxy-1H-indole-6-sulfonamide] | –
-12 | 23 | Cn1cc([C@H](CNS(=O)(=O)c2ccc3cc[nH]c3c2)N2CCCC2)c2cnccc21 [Compound 81, (R)-N-(2-(1-methyl-1H-pyrrolo[3,2-c]pyridin-3-yl)-2-(pyrrolidin-1-yl)ethyl)-1H-indole-6-sulfonamide] | –
88 | 100 | C[C@@H]1CCN([C@@H](CNS(=O)(=O)c2ccc3cc[nH]c3c2)c2cn(C)c3ccccc23)C1 [Compound 77, N-((R)-2-(1-methyl-1H-indol-3-yl)-2-((R)-3-methylpyrrolidin-1-yl)ethyl)-1H-indole-6-sulfonamide] | –
23 | 99.6 | O=S(=O)(NC[C@H](c1cnc2ccccn12)N1CCCC1)c1ccc2cc[nH]c2c1 [Compound 78, (R)-N-(2-(imidazo[1,2-a]pyridin-3-yl)-2-(pyrrolidin-1-yl)ethyl)-1H-indole-6-sulfonamide] | –
14 | 56.2 | CCn1nc([C@H](CNS(=O)(=O)c2ccc3cc[nH]c3c2)N2CCC2)c2ccccc21 [Compound 95, (S)-N-(2-(azetidin-1-yl)-2-(1-ethyl-1H-indazol-3-yl)ethyl)-1H-indole-6-sulfonamide] | –
21 | 94.3 | CNC(CNS(=O)(=O)c1ccc2cc[nH]c2c1)c1cn(C)c2ccccc12 (stereo not shown) [Compound 88, N-(2-(1-methyl-1H-indol-3-yl)-2-(methylamino)ethyl)-1H-indole-6-sulfonamide] | –
-15 | 65.6 | Cn1nc([C@H](CNS(=O)(=O)c2ccc3cc[nH]c3c2)N2CCCC2)c2ccccc21 [Compound 90, (S)-N-(2-(1-methyl-1H-indazol-3-yl)-2-(pyrrolidin-1-yl)ethyl)-1H-indole-6-sulfonamide] | –

The remaining lines, values behind:

Structure (SMILES) | inhibition at 25 µM [1] [%] | inhibition at 100 µM [2] [%] | other results
CN(C)C(CNS(=O)(=O)c1ccc2cc[nH]c2c1)c1cn(CC#N)c2ccccc12 (stereo not shown) [Compound 71, N-(2-(1-(cyanomethyl)-1H-indol-3-yl)-2-(dimethylamino)ethyl)-1H-indole-6-sulfonamide] | 63 | 99.3 | –
Cn1cc([C@H](CNS(=O)(=O)c2ccc3cc[nH]c3c2)N2CCCC2)c2cccnc21 [Compound 67, (R)-N-(2-(1-methyl-1H-pyrrolo[2,3-b]pyridin-3-yl)-2-(pyrrolidin-1-yl)ethyl)-1H-indole-6-sulfonamide] | 34 | 73.3 | –
Cn1cc(C(CNS(=O)(=O)c2ccc3cc[nH]c3c2)N2CCC(C)(C)C2)c2ccccc21 (stereo not shown) [Compound 52, N-(2-(3,3-dimethylpyrrolidin-1-yl)-2-(1-methyl-1H-indol-3-yl)ethyl)-1H-indole-6-sulfonamide] | 62 | 96.2 | –
Cn1cc([C@@H](CNS(=O)(=O)c2ccc3cc[nH]c3c2)N2CCCC2)c2cccnc21 [Compound 66, (S)-N-(2-(1-methyl-1H-pyrrolo[2,3-b]pyridin-3-yl)-2-(pyrrolidin-1-yl)ethyl)-1H-indole-6-sulfonamide] | -10 | 42 | –
Cn1cc(C(CNS(=O)(=O)c2ccc3cc[nH]c3c2)NCc2ccccc2)c2ccccc21 (stereo not shown) [Compound 50, N-(2-(benzylamino)-2-(1-methyl-1H-indol-3-yl)ethyl)-1H-indole-6-sulfonamide] | 95 | 94.1 | IC50: ≤ 10 µM
Cn1cc(C(CNS(=O)(=O)c2ccc3cc[nH]c3c2)N2CC[C@@H](O)C2)c2ccccc21 (stereo partly drawn) [Compound 44, N-(2-((R)-3-hydroxypyrrolidin-1-yl)-2-(1-methyl-1H-indol-3-yl)ethyl)-1H-indole-6-sulfonamide] | 82 | 99.7 | IC50: ≤ 10 µM
CC(C)n1cc(C(CNS(=O)(=O)c2ccc3cc[nH]c3c2)N(C)C)c2ccccc21 (stereo not shown) [Compound 1, N-(2-(dimethylamino)-2-(1-isopropyl-1H-indol-3-yl)ethyl)-1H-indole-6-sulfonamide] | – | – | % Inhibition of Protein Aggregation, 25 μM cmpd [1]: 84%; % Inhibition of Protein Aggregation, 100 μM cmpd [2]: 99.5%; % Inhibition of Protein Aggregation, 400 μM cmpd (400 μM compound, 15 μM cryAB(R120G), 42° C., absorbance at 550 nm): 96.6%; IC50: ≤ 10 µM
CN(C)C(CNS(=O)(=O)c1ccc2cc[nH]c2c1)c1cn(CC2COC2)c2ccccc12 (stereo not shown) [Compound 70, N-(2-(dimethylamino)-2-(1-(oxetan-3-ylmethyl)-1H-indol-3-yl)ethyl)-1H-indole-6-sulfonamide] | 76 | 99.6 | –
CC(C)n1cc(C(CNS(=O)(=O)c2ccc3[nH]ccc3c2)N(C)C)c2ccccc21 (stereo not shown) [Compound 12, N-(2-(dimethylamino)-2-(1-isopropyl-1H-indol-3-yl)ethyl)-1H-indole-5-sulfonamide] | 30 | 87.1 | inhibition at 400 µM (400 μM compound, 15 μM cryAB(R120G), 42° C., absorbance at 550 nm, read-out: % Inhibition of Protein Aggregation, 400 μM cmpd): 96.1%
Cc1cccc2c(C(CNS(=O)(=O)c3ccc4cc[nH]c4c3)N(C)C)cn(C)c12 (stereo not shown) [Compound 73, N-(2-(1,7-dimethyl-1H-indol-3-yl)-2-(dimethylamino)ethyl)-1H-indole-6-sulfonamide] | 57 | 99.5 | –
CCn1nc(C(CNS(=O)(=O)c2ccc3cc[nH]c3c2)N(C)C)c2ccccc21 (stereo not shown) [Compound 72, N-(2-(dimethylamino)-2-(1-ethyl-1H-indazol-3-yl)ethyl)-1H-indole-6-sulfonamide] | 62 | 98.2 | IC50: 10 to 50 µM
CC(=O)N[C@H]1CCN(C(CNS(=O)(=O)c2ccc3cc[nH]c3c2)c2cn(C)c3ccccc23)C1 (stereo partly drawn) [Compound 35, N-((3S)-1-(2-(1H-indole-6-sulfonamido)-1-(1-methyl-1H-indol-3-yl)ethyl)pyrrolidin-3-yl)acetamide] | -19 | 41.7 | –
